Data taken from ChEMBL document CHEMBL4732247, “Discovery of A031 as effective proteolysis targeting chimera (PROTAC) androgen receptor (AR) degrader for the treatment of prostate cancer” (Eur J Med Chem, 2021).

Legend:
Format in all cases: functional
Details in all cases: 96 h, time 4 day, read-out: GI
VCaP [1] = experiment: Cytotoxicity against human VCaP cells assessed as growth inhibition at 0.25 uM after 4 days by CCK8 assay relative to control
VCaP [2] = experiment: Cytotoxicity against human VCaP cells assessed as growth inhibition at 0.5 uM after 4 days by CCK8 assay relative to control
VCaP [3] = experiment: Cytotoxicity against human VCaP cells assessed as growth inhibition at 1 uM after 4 days by CCK8 assay relative to control
VCaP [4] = experiment: Cytotoxicity against human VCaP cells assessed as growth inhibition at 0.125 uM after 4 days by CCK8 assay relative to control

Row | Compound | inhibition of growth at 0.25 µM (VCaP [1]) [%] | inhibition of growth at 0.5 µM (VCaP [2]) [%] | inhibition of growth at 1 µM (VCaP [3]) [%] | inhibition of growth at 0.125 µM (VCaP [4]) [%]
1 | Cc1ncsc1-c1ccc([C@H](C)NC(=O)[C@@H]2C[C@@H](O)CN2C(=O)[C@@H](NC(=O)COCCN2CCN(c3ccc(C(=O)N4[C@@H]5CC[C@H]4C[C@@H](Oc4ccc(C#N)c(Cl)c4)C5)nn3)CC2)C(C)(C)C)cc1 | 6.65 | 12.5 | 28.1 | –
2 | N#Cc1ccc(O[C@H]2C[C@H]3CC[C@@H](C2)N3C(=O)c2cnc(N3CCN(CCCCCCCNc4ccc5c(c4)C(=O)N(C4CCC(=O)NC4=O)C5=O)CC3)nc2)cc1Cl (some centres undefined) | 30.7 | 35.2 | 30.4 | 28.1
3 | C[C@@]12C[C@H](NC(=O)c3ccc(N4CCN(CCCCCCCCCNc5ccc6c(c5)C(=O)N(C5CCC(=O)NC5=O)C6=O)CC4)cc3)C[C@]1(C)C[C@@H](Oc1ccc(C#N)c(Cl)c1)C2 (some centres undefined) | 18 | 24.3 | 25 | –
4 | Cc1ncsc1-c1ccc(CNC(=O)[C@@H]2C[C@@H](O)CN2C(=O)[C@@H](NC(=O)CCN2CCN(c3ccc(C(=O)N4[C@@H]5CC[C@H]4C[C@@H](Oc4ccc(C#N)c(Cl)c4)C5)cc3)CC2)C(C)(C)C)cc1 | 2.74 | 18.2 | 61.2 | 1.87
5 | CN1CCC(N2CCC(C#Cc3ccc(C(=O)N4[C@@H]5CC[C@H]4C[C@@H](Oc4ccc(C#N)c(Cl)c4)C5)cc3)CC2)CC1 | 23.3 | 30.1 | 34 | 14.9
6 | N#Cc1ccc(O[C@H]2C[C@H]3CC[C@@H](C2)N3C(=O)c2cnc(N3CCN(CCCCNc4ccc5c(c4)C(=O)N(C4CCC(=O)NC4=O)C5=O)CC3)nc2)cc1Cl (some centres undefined) | 22.2 | 36.5 | 53.1 | 10.2
7 | C[C@@]12C[C@H](NC(=O)c3ccc(N4CCN(CCCCCCCNc5ccc6c(c5)C(=O)N(C5CCC(=O)NC5=O)C6=O)CC4)cc3)C[C@]1(C)C[C@@H](Oc1ccc(C#N)c(Cl)c1)C2 (some centres undefined) | 14 | 14.3 | 14.8 | 7.46
8 | Cc1ncsc1-c1ccc([C@H](C)NC(=O)[C@@H]2C[C@@H](O)CN2C(=O)[C@@H](NC(=O)COCCN2CCN(c3ccc(C(=O)N4[C@@H]5CC[C@H]4C[C@@H](Oc4ccc(C#N)c(Cl)c4)C5)nc3)CC2)C(C)(C)C)cc1 | 25.6 | 33.9 | 43.2 | 18.8
9 | Cc1ncsc1-c1ccc([C@H](C)NC(=O)[C@@H]2C[C@@H](O)CN2C(=O)[C@@H](NC(=O)COCCN2CCN(c3ccc(C(=O)N4[C@@H]5CC[C@H]4C[C@@H](Oc4ccc(C#N)c(Cl)c4)C5)cn3)CC2)C(C)(C)C)cc1 | 7.23 | 63.6 | 72.5 | 28.4
10 | Cc1ncsc1-c1ccc(CNC(=O)[C@@H]2C[C@@H](O)CN2C(=O)[C@@H](NC(=O)COCCN2CCN(c3ccc(C(=O)N4[C@@H]5CC[C@H]4C[C@@H](Oc4ccc(C#N)c(Cl)c4)C5)cc3)CC2)C(C)(C)C)cc1 | 31.1 | 56.6 | 64.6 | 18.5
11 | Cc1ncsc1-c1ccc([C@H](C)NC(=O)[C@@H]2C[C@@H](O)CN2C(=O)[C@@H](NC(=O)COCCN2CCN(c3cnc(C(=O)N4[C@@H]5CC[C@H]4C[C@@H](Oc4ccc(C#N)c(Cl)c4)C5)cn3)CC2)C(C)(C)C)cc1 | 52 | 61.5 | 72.3 | 42.4
12 | N#Cc1ccc(O[C@H]2C[C@H]3CC[C@@H](C2)N3C(=O)c2cnc(N3CCN(CCCNc4ccc5c(c4)C(=O)N(C4CCC(=O)NC4=O)C5=O)CC3)nc2)cc1Cl (some centres undefined) | 25.6 | 30.1 | 42.4 | 17.1
13 | C[C@@]12C[C@H](NC(=O)c3ccc(N4CCN(CCCCCCCCNc5ccc6c(c5)C(=O)N(C5CCC(=O)NC5=O)C6=O)CC4)cc3)C[C@]1(C)C[C@@H](Oc1ccc(C#N)c(Cl)c1)C2 (some centres undefined) | 19.5 | 24.6 | 26 | 6.05
14 | Cc1ncsc1-c1ccc([C@H](CC(=O)NCCCCCCCCN2CCN(c3ccc(C(=O)N4[C@@H]5CC[C@H]4C[C@@H](Oc4ccc(C#N)c(Cl)c4)C5)cc3)CC2)NC(=O)[C@H]2C[C@H](O)CN2C(=O)[C@H](NC(=O)C2(F)CC2)C(C)(C)C)cc1 | 11.3 | 24.1 | 44.7 | –
15 | Cc1ncsc1-c1ccc([C@H](CC(=O)NCCCCCCCCCN2CCN(c3ccc(C(=O)N4[C@@H]5CC[C@H]4C[C@@H](Oc4ccc(C#N)c(Cl)c4)C5)cc3)CC2)NC(=O)[C@H]2C[C@H](O)CN2C(=O)[C@H](NC(=O)C2(F)CC2)C(C)(C)C)cc1 | 15.9 | 29 | 55.2 | 5.34
16 | Cc1ncsc1-c1ccc([C@H](CC(=O)NCCCCCCCN2CCN(c3ccc(C(=O)N4[C@@H]5CC[C@H]4C[C@@H](Oc4ccc(C#N)c(Cl)c4)C5)cc3)CC2)NC(=O)[C@H]2C[C@H](O)CN2C(=O)[C@H](NC(=O)C2(F)CC2)C(C)(C)C)cc1 | 2.18 | 14.5 | 29.8 | –
17 | Cc1ncsc1-c1ccc([C@H](C)NC(=O)[C@@H]2C[C@@H](O)CN2C(=O)[C@@H](NC(=O)COCCN2CCN(c3ccc(C(=O)N4[C@@H]5CC[C@H]4C[C@@H](Oc4ccc(C#N)c(Cl)c4)C5)cc3)CC2)C(C)(C)C)cc1 | 61.8 | 70.6 | 76.2 | 45
18 | Cc1ncsc1-c1ccc(CNC(=O)[C@@H]2C[C@@H](O)CN2C(=O)[C@@H](NC(=O)CN2CCN(c3ccc(C(=O)N4[C@@H]5CC[C@H]4C[C@@H](Oc4ccc(C#N)c(Cl)c4)C5)cc3)CC2)C(C)(C)C)cc1 | 5.65 | 35.1 | 86.7 | –
19 | C[C@@]12C[C@H](NC(=O)c3ccc(N4CCN(CCCCCNc5ccc6c(c5)C(=O)N(C5CCC(=O)NC5=O)C6=O)CC4)cc3)C[C@]1(C)C[C@@H](Oc1ccc(C#N)c(Cl)c1)C2 (some centres undefined) | 30.3 | 38.1 | 44.5 | 24.1
20 | N#Cc1ccc(O[C@H]2C[C@H]3CC[C@@H](C2)N3C(=O)c2cnc(N3CCN(CCCCCCNc4ccc5c(c4)C(=O)N(C4CCC(=O)NC4=O)C5=O)CC3)nc2)cc1Cl (some centres undefined) | 36.3 | 37.8 | 38.9 | 31.7
21 | N#Cc1ccc(O[C@H]2C[C@H]3CC[C@@H](C2)N3C(=O)c2cnc(N3CCN(CCCCCNc4ccc5c(c4)C(=O)N(C4CCC(=O)NC4=O)C5=O)CC3)nc2)cc1Cl (some centres undefined) | 31.4 | 34.2 | 34.9 | 20.4
